This note sets out measurements from ChEMBL document CHEMBL5291721, “A preclinical secondary pharmacology resource illuminates target-adverse drug reaction associations of marketed drugs” (Nat Commun, 2023).

In experiment [1] the target is T1, Gastric inhibitory polypeptide receptor (Homo sapiens, UniProt P48546).
T1 sequence (P48546 whole entry): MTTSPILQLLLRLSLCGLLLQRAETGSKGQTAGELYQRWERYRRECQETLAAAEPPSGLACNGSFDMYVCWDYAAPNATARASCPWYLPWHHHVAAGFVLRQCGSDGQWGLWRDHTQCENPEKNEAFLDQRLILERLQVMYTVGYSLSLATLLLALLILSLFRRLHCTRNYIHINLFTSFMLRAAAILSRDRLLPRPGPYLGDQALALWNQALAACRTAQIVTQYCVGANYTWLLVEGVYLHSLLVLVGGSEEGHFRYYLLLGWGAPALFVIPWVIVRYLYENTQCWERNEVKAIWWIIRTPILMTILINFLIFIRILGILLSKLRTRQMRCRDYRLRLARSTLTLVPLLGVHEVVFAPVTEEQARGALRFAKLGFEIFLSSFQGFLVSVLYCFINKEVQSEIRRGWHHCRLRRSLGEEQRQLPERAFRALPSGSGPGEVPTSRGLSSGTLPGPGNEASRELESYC

In a further experiment the target is T2, Progesterone receptor (Homo sapiens, UniProt P06401).
T2 sequence (P06401 whole entry): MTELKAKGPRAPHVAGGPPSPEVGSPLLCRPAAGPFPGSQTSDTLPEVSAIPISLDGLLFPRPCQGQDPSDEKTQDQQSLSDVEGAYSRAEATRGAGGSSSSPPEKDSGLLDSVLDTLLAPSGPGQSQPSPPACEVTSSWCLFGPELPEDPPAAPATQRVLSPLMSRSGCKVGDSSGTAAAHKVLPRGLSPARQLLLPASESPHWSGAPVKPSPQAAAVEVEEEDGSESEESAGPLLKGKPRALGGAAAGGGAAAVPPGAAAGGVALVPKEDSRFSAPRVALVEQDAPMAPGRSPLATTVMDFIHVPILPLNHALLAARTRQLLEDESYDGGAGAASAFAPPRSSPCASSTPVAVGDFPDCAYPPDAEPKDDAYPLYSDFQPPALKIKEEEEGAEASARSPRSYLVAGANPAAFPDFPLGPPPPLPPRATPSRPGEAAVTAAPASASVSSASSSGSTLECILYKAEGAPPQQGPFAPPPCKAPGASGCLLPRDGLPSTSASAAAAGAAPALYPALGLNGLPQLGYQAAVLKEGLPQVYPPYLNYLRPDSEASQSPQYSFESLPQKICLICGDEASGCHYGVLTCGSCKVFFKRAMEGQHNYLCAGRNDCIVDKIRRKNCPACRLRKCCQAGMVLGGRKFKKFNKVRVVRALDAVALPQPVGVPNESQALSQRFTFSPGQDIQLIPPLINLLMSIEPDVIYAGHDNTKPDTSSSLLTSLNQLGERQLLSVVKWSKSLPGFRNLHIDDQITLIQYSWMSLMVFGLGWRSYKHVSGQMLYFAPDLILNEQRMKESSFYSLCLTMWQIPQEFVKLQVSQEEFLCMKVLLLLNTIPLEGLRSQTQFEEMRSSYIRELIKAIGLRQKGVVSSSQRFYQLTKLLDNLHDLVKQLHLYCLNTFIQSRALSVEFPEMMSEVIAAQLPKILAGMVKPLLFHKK

The target in another experiment is T3, Androgen receptor (Homo sapiens, UniProt P10275).
T3 sequence (P10275 whole entry): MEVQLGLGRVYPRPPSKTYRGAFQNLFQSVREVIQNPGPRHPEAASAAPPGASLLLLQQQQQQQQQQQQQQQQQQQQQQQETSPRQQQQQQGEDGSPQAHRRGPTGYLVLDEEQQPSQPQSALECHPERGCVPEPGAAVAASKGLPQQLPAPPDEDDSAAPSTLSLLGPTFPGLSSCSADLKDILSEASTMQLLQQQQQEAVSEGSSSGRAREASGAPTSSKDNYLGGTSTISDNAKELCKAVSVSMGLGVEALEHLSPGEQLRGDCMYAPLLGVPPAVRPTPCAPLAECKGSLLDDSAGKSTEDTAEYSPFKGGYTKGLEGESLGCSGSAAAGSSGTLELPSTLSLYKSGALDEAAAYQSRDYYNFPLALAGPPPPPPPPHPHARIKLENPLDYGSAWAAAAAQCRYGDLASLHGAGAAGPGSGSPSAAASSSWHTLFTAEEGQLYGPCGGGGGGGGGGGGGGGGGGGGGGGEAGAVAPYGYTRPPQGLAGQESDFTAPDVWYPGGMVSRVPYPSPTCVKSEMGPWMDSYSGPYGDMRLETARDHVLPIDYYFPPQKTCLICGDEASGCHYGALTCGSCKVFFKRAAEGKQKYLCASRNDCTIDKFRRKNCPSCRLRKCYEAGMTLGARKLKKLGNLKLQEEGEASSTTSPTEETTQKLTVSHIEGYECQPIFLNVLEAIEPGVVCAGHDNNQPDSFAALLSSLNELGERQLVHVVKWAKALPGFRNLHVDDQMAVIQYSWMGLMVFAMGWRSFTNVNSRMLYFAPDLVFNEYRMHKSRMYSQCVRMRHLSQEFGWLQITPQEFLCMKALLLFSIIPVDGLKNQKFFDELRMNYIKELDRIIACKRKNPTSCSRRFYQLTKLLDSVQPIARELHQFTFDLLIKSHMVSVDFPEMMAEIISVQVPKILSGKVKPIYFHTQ
Also: assay procedure not described here.

As usually defined, the AC50 is the concentration at which the activity in the assay is half-maximal. Read a low AC50 as activity at low concentration. Consider `CCOC(=O)[C@H](CCc1ccccc1)N[C@@H](C)C(=O)N1[C@H](C(=O)O)C[C@@H]2CCC[C@@H]21`, for which the AC50 (in experiment [1]; on Progesterone receptor) was above 30 µM in each case. As for `CC(=O)Nc1ccc(O)cc1` [ACETAMINOPHEN], the AC50 at Androgen receptor is above 30 µM. `CCCSc1ccc2nc(NC(=O)OC)[nH]c2c1` [ALBENDAZOLE]: on Progesterone receptor, the concentration at half-maximal activity (AC50) is above 30 µM. As for `C=CCc1ccccc1OCC(O)CNC(C)C` (stereo unspecified) [ALPRENOLOL], the AC50 on Androgen receptor was above 0.3 µM. Turning to `CNC(=O)c1ccccc1Sc1ccc2c(/C=C/c3ccccn3)n[nH]c2c1` [AXITINIB], the AC50 on Progesterone receptor was above 30 µM. Regarding `CC[C@H]1OC(=O)[C@H](C)[C@@H](O[C@H]2C[C@@](C)(OC)[C@@H](O)[C@H](C)O2)[C@H](C)[C@@H](O[C@@H]2O[C@H](C)C[C@H](N(C)C)[C@H]2O)[C@](C)(O)C[C@@H](C)CN(C)[C@H](C)[C@@H](O)[C@]1(C)O` [AZITHROMYCIN], the half-maximal activity concentration (AC50) (in experiment [1]; at Progesterone receptor) was above 30 µM each time. On to `NCC(CC(=O)O)c1ccc(Cl)cc1` (stereo unspecified) [BACLOFEN], for which the AC50 (in experiment [1]; on Progesterone receptor) was above 30 µM in each case.

`CC(C)C[C@H]1C(=O)N2CCC[C@H]2[C@]2(O)O[C@](NC(=O)[C@@H]3C=C4c5cccc6[nH]c(Br)c(c56)C[C@H]4N(C)C3)(C(C)C)C(=O)N12` [BROMOCRIPTINE]: the half-maximal activity concentration (AC50) (in experiment [1]; at Progesterone receptor) was above 30 µM in each case. `CN(C)CCn1nnnc1SCC1=C(C(=O)O)N2C(=O)[C@@H](NC(=O)Cc3csc(N)n3)[C@H]2SC1` [CEFOTIAM] showed an AC50 at Androgen receptor above 30 µM. Turning to `Cc1ccc(-c2cc(C(F)(F)F)nn2-c2ccc(S(N)(=O)=O)cc2)cc1` [CELECOXIB], the AC50 (in experiment [1]; on Progesterone receptor) was above 30 µM each time. As to `CC1=C(C(=O)O)N2C(=O)[C@@H](NC(=O)[C@H](N)c3ccccc3)[C@H]2SC1` [CEPHALEXIN ANHYDROUS], the concentration at half-maximal activity (AC50) (in experiment [1]; on Progesterone receptor) was above 30 µM throughout. On to `COCc1c(C(C)C)nc(C(C)C)c(/C=C/[C@@H](O)C[C@@H](O)CC(=O)O)c1-c1ccc(F)cc1` [CERIVASTATIN], for which, on Androgen receptor, the AC50 was above 30 µM.

For the compound `CN(C)CCC(c1ccc(Cl)cc1)c1ccccn1` (stereo unspecified) [CHLORPHENIRAMINE], the half-maximal activity concentration (AC50) (in experiment [1]; at Progesterone receptor) was above 30 µM throughout. Consider `CN(C)[C@@H](c1cccc(O)c1)[C@H]1CCCC[C@H]1O` [CIRAMADOL], for which, on Androgen receptor, the AC50 was above 30 µM. `CN(C)CC(c1ccc(O)cc1)C1(O)CCCCC1` (stereo unspecified) [DESVENLAFAXINE] gave a half-maximal activity concentration (AC50) at Androgen receptor above 30 µM. The same measure, in the same setting: the figure for `O=C(Cc1ccc(-c2ccccc2)cc1)Nc1ccccn1` [DIFENPIRAMIDE] is above 30 µM. On Androgen receptor, `Cc1cc(C#N)cc(C)c1Oc1nc(Nc2ccc(C#N)cc2)nc(N)c1Br` [ETRAVIRINE] had a concentration at half-maximal activity (AC50) above 30 µM. On Androgen receptor, `O=C(O)c1cc(O)ccc1O` [GENTISIC ACID] displayed a half-maximal activity concentration (AC50) above 30 µM. For the compound `CCC1=C(C)CN(C(=O)NCCc2ccc(S(=O)(=O)NC(=O)N[C@H]3CC[C@H](C)CC3)cc2)C1=O` [GLIMEPIRIDE], the concentration at half-maximal activity (AC50) at Androgen receptor was above 30 µM.

The compound `C[N+]1(C)CCC(OC(=O)C(O)(c2ccccc2)C2CCCC2)C1` (stereo unspecified) [GLYCOPYRRONIUM BROMIDE] displayed an AC50 on Progesterone receptor above 30 µM. Regarding `C[C@]12CCC(=O)C=C1CC[C@@H]1[C@@H]2[C@@H](O)C[C@@]2(C)[C@H]1CC[C@]2(O)C(=O)CO` [HYDROCORTISONE], the AC50 in experiment [1] was above 30 µM; on Progesterone receptor, 7.61 µM.

At Androgen receptor, `CC(C)Nc1ncccn1` [ISAXONINE] came in with an AC50 above 30 µM. As for `CCC(C)n1ncn(-c2ccc(N3CCN(c4ccc(OCC5COC(Cn6cncn6)(c6ccc(Cl)cc6Cl)O5)cc4)CC3)cc2)c1=O` (stereo unspecified) [ITRACONAZOLE], the AC50 (in experiment [1]; on Progesterone receptor) was above 30 µM throughout. On Progesterone receptor, `CN1C(C(=O)Nc2ccccn2)=C(O)c2sc(Cl)cc2S1(=O)=O` [LORNOXICAM] displayed a half-maximal activity concentration (AC50) above 30 µM.

`OCCN1C[C@H](O)[C@@H](O)[C@H](O)[C@H]1CO` [MIGLITOL] registered an AC50 at Androgen receptor above 30 µM.

As for `CC[C@H]1[C@@H](O)[C@@H]2[C@H](CC[C@]3(C)[C@@H]([C@H](C)CCC(=O)O)CC[C@@H]23)[C@@]2(C)CC[C@@H](O)C[C@@H]12` [OBETICHOLIC ACID], the half-maximal activity concentration (AC50) at Androgen receptor was above 30 µM. In turn, `CC[N+]1(C)[C@@H]2CC(OC(=O)[C@H](CO)c3ccccc3)C[C@H]1[C@@H]1O[C@@H]12` (stereo partly specified) [OXITROPIUM] had an AC50 at Androgen receptor above 30 µM. In turn, `CN(C)S(=O)(=O)c1ccc2c(c1)N(CCCN1CCC(CCO)CC1)c1ccccc1S2` [PIPOTIAZINE] had a half-maximal activity concentration (AC50) on Androgen receptor above 30 µM. Turning to `CCC(=O)NCC[C@@H]1CCc2ccc3c(c21)CCO3` [RAMELTEON], the concentration at half-maximal activity (AC50) at Androgen receptor is above 30 µM. As to `CS(=O)(=O)c1ccc(C2=C(c3ccccc3)C(=O)OC2)cc1` [ROFECOXIB], the AC50 (in experiment [1]; on Progesterone receptor) was above 30 µM each time. In the case of `CO[C@H]1C[C@@H]2CC[C@@H](C)[C@@](O)(O2)C(=O)C(=O)N2CCCC[C@H]2C(=O)O[C@H]([C@H](C)C[C@@H]2CC[C@@H](O)[C@H](OC)C2)CC(=O)[C@H](C)/C=C(\C)[C@@H](O)[C@@H](OC)C(=O)[C@H](C)C[C@H](C)/C=C/C=C/C=C/1C` [SIROLIMUS], the half-maximal activity concentration (AC50) (at Androgen receptor; in experiment [1]; on Progesterone receptor) was above 30 µM in each case. On to `Cc1cn([C@H]2C=C[C@@H](CO)O2)c(=O)[nH]c1=O` [STAVUDINE], for which the concentration at half-maximal activity (AC50) (in experiment [1]; on Progesterone receptor) was above 30 µM in each case.

Regarding `Clc1ccc2nsnc2c1NC1=NCCN1` [TIZANIDINE], the concentration at half-maximal activity (AC50) (in experiment [1]; on Progesterone receptor) was above 30 µM in each case. In turn, `CCOC(=O)[C@H](CCc1ccccc1)N[C@@H](C)C(=O)N1[C@H](C(=O)O)C[C@H]2CCCC[C@@H]21` [TRANDOLAPRIL] yielded an AC50 at Androgen receptor above 30 µM.

In the case of `CCCCCCOc1nsnc1C1=CCCN(C)C1` [XANOMELINE], at Androgen receptor, the AC50 was above 30 µM. For `Cc1cn([C@H]2C[C@H](N=[N+]=[N-])[C@@H](CO)O2)c(=O)[nH]c1=O` [ZIDOVUDINE], the half-maximal activity concentration (AC50) (in experiment [1]; at Progesterone receptor) was above 30 µM throughout.
